Tests used:
[1] = target: Thymidylate synthase (Escherichia coli, UniProt C3SWJ7); experiment: Inhibitory concentration against Escherichia coli thymidylate synthase
[2] = target: Thymidylate synthase (Homo sapiens, UniProt P04818)
Description: Inhibitory concentration against human thymidylate synthase

[3] = test system: HT-29; experiment: Growth inhibitory concentration against human HT-29 cells; assay type: functional
[4] = Inhibitory concentration against Escherichia coli dihydrofolate reductase
[5] = test system: MDA-MB-231; experiment: Growth inhibitory concentration against human MDA-MB-231 cells; assay type: functional
[6] = test system: MOLT-4; experiment: Growth inhibitory concentration against human MOLT-4 cells; assay type: functional
[7] = target: T1, Dihydrofolate reductase (Homo sapiens, UniProt P00374); experiment: Inhibitory concentration against human dihydrofolate reductase
T1 sequence (P00374 whole entry): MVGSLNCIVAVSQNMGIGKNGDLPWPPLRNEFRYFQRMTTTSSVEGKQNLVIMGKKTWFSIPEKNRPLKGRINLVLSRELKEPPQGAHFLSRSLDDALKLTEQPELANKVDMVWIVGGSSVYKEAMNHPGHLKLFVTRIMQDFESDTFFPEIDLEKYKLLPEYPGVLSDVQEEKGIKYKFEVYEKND

Thymidylate synthase (Homo sapiens, UniProt P04818), sequence (P04818 whole entry): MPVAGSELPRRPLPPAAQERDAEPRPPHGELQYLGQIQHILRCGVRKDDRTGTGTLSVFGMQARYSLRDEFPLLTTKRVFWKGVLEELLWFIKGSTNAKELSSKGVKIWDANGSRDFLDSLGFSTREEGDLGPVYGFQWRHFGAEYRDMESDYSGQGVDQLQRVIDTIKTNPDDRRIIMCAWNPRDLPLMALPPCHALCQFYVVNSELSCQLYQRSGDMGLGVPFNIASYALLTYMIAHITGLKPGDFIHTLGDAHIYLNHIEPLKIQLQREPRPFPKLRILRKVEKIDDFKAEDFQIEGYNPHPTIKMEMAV
Thymidylate synthase (Escherichia coli, UniProt C3SWJ7), sequence (C3SWJ7 whole entry): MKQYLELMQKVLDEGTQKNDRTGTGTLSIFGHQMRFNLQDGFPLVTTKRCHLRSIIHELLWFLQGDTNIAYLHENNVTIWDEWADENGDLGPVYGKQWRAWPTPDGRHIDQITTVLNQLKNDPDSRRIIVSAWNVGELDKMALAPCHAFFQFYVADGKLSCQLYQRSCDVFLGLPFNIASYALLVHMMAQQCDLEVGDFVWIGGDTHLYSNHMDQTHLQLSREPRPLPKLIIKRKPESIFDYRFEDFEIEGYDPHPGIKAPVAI

Row | Compound | IC50 [1] [µM] | IC50 [2] [µM] | GI50 [3] [µM] | IC50 [4] [µM] | GI50 [5] [µM] | GI50 ([5]; Homo sapiens, MDA-MB-231) [µM] | GI50 [6] [µM] | IC50 [7] [µM]
1 | Cc1[nH]c2nc(N)nc(O)c2c1Sc1ccc(Br)c([N+](=O)[O-])c1 | 11 | 0.21 | 6.18 | > 25 | 3.28 | 6.55 | 4.23 | 
2 | Cc1[nH]c2nc(N)nc(O)c2c1Sc1ccc(OC(F)(F)F)cc1 | > 23 | 2.3 |  | > 28 |  |  |  | 
3 | Cc1[nH]c2nc(N)nc(O)c2c1Sc1ccc(Br)cc1 |  | 0.46 |  | 2.8 |  |  |  | > 28
4 | Cc1[nH]c2nc(N)nc(O)c2c1Sc1ccc(C#N)cc1 |  | 0.28 |  | > 34 |  |  |  | > 34
5 | Cc1[nH]c2nc(N)nc(O)c2c1Sc1cc(C(F)(F)F)cc(C(F)(F)F)c1 |  | > 21 |  | > 25 |  |  |  | > 25
6 | Cc1[nH]c2nc(N)nc(O)c2c1Sc1cc(Cl)cc(Cl)c1 | > 24 | 2.4 |  | > 29 |  |  |  | 
7 | Cc1[nH]c2nc(N)nc(O)c2c1Sc1cc(F)cc(F)c1 |  | 2.7 |  | > 32 |  |  |  | > 32
8 | Cc1[nH]c2nc(N)nc(O)c2c1Sc1ccc(C(F)(F)F)cc1 |  | 0.8 |  | > 29 |  |  |  | > 29
9 | Cc1[nH]c2nc(N)nc(O)c2c1Sc1cccc(Br)c1 | > 24 | 1.2 |  | > 28 |  |  |  | 
10 | Cc1[nH]c2nc(N)nc(O)c2c1Sc1ccc(F)c(Cl)c1 |  | 0.83 |  | > 31 |  |  |  | > 31
11 | Cc1[nH]c2nc(N)nc(O)c2c1Sc1ccc(F)cc1 |  | 1.4 |  | > 33 |  |  |  | > 32
12 | Cc1[nH]c2nc(N)nc(O)c2c1Sc1cccc(Cl)c1 |  | 1.4 |  | > 33 |  |  |  | > 32
13 | Cc1[nH]c2nc(N)nc(O)c2c1Sc1cc([N+](=O)[O-])cc([N+](=O)[O-])c1 | > 23 | 23 |  | > 27 |  |  |  | 
14 | Cc1[nH]c2nc(N)nc(O)c2c1Sc1ccc(Cl)c([N+](=O)[O-])c1 | 23 | 0.46 |  | > 28 |  |  |  | 
15 | Cc1[nH]c2nc(N)nc(O)c2c1Sc1ccc(F)c(F)c1 |  | 0.9 |  | > 32 |  |  |  | > 32
16 | Cc1[nH]c2nc(N)nc(O)c2c1Sc1ccc(Br)c(Cl)c1 |  | 0.22 |  | > 26 |  |  |  | > 26
17 | Cc1[nH]c2nc(N)nc(O)c2c1Sc1cccc(F)c1 | > 28 | 2.8 |  | > 33 |  |  |  | 

Source: ChEMBL document CHEMBL1144372, “Novel 2-amino-4-oxo-5-arylthio-substituted-pyrrolo[2,3-d]pyrimidines as nonclassical antifolate inhibitors of thymidylate synthase” (Bioorg Med Chem Lett, 2005)
